Results: US6737383B1, “Herbicidal oxadiazolidines” (priority 1999, dated 2004)

Assays:
surinam grass = test: Test B pre/postemergence surinam grass; format: in vivo, Brachiaria decumbens; details: for Plant response rating, B. signalgrass: scale of 0 to 10 where 0 is no effect and 10 is complete control
How it was run: (§1)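 Test chemicals in a non-phytotoxic solvent mixture with surfactant were sprayed preemergence onto planted seeds and postemergence onto plants 2 to 18 cm tall (1- to 4-leaf stage). After twelve to sixteen days in a greenhouse, injury was visually rated against untreated controls from 0 (no effect) to 10 (complete control).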

blackgrass = test: Test B pre/postemergence blackgrass; format: in vivo, Alopecurus myosuroides; details: for Plant response rating, Blackgrass: scale of 0 to 10 where 0 is no effect and 10 is complete control
How it was run: as §1

wheat = test: Test B pre/postemergence wheat; format: in vivo, Triticum aestivum; details: for Plant response rating, Wheat: scale of 0 to 10 where 0 is no effect and 10 is complete control
How it was run: as §1

sugar beet = test: Test B pre/postemergence sugar beet; format: in vivo, Beta vulgaris; details: for Plant response rating, Sugarbeets: scale of 0 to 10 where 0 is no effect and 10 is complete control
How it was run: as §1

bedstraw = test: Test B pre/postemergence bedstraw; format: in vivo, Galium aparine; details: Preemergence
How it was run: as §1

cocklebur = test: Test B pre/postemergence cocklebur; format: in vivo, Xanthium strumarium; details: for Plant response rating, Cocklebur: scale of 0 to 10 where 0 is no effect and 10 is complete control
How it was run: as §1

wild oat = test: Test B pre/postemergence wild oat; format: in vivo, Avena fatua; details: for Plant response rating, Wild oats: scale of 0 to 10 where 0 is no effect and 10 is complete control
How it was run: as §1

purple nutsedge = test: Test B pre/postemergence purple nutsedge; format: in vivo, Cyperus rotundus
How it was run: as §1

corn = test: Test B pre/postemergence corn; format: in vivo, Zea mays; details: for Plant response rating, Corn: scale of 0 to 10 where 0 is no effect and 10 is complete control
How it was run: as §1

giant foxtail = test: Test B pre/postemergence giant foxtail; format: in vivo, Setaria faberii; details: for Plant response rating, Giant foxtail: scale of 0 to 10 where 0 is no effect and 10 is complete control
How it was run: as §1

velvetleaf = test: Test B pre/postemergence velvetleaf; format: in vivo, Abutilon theophrasti; details: for Velvetleaf plant response rating: Rate 125 g/ha, scale 0 to 10, 0 is no effect, 10 is complete control; for Plant response rating, Velvetleaf: scale of 0 to 10 where 0 is no effect and 10 is complete control
How it was run: as §1

soybean = test: Test B pre/postemergence soybean; format: in vivo, Glycine max; details: for Plant response rating, Soybean: scale of 0 to 10 where 0 is no effect and 10 is complete control
How it was run: as §1

crabgrass = test: Test B pre/postemergence crabgrass; format: in vivo, Digitaria sanguinalis; details: for Plant response rating, Crabgrass: scale of 0 to 10 where 0 is no effect and 10 is complete control
How it was run: as §1

rape = test: Test B pre/postemergence rape; format: in vivo, Brassica napus; details: for Plant response rating, Rape: scale of 0 to 10 where 0 is no effect and 10 is complete control
How it was run: as §1

morningglory = test: Test B pre/postemergence morningglory; format: in vivo, Ipomoea hederacea; details: for Plant response rating, Morningglory: scale of 0 to 10 where 0 is no effect and 10 is complete control
How it was run: as §1

pigweed = test: Test B pre/postemergence pigweed; format: in vivo, Amaranthus retroflexus; details: for Plant response rating, Redroot pigweed: scale of 0 to 10 where 0 is no effect and 10 is complete control
How it was run: as §1

[1] = Postemergence, Rate 31 g/ha, visual rating, scale 0 to 10 (0 no effect, 10 complete control)
[2] = Postemergence, Rate 125 g/ha, scale 0 to 10, 0 is no effect, 10 is complete control
[3] = Preemergence, Rate 31 g/ha, visual rating, scale 0 to 10 (0 no effect, 10 complete control)
[4] = Preemergence, Rate 125 g/ha, scale 0 to 10, 0 is no effect, 10 is complete control
[5] = Postemergence, Rate 62 g/ha, scale of 0 to 10, 0 is no effect, 10 is complete control

CC(C)N(C(=O)n1oc(=O)n(C[Si](C)(C)C)c1=O)c1ccc(F)cc1F [Compound 518]
B. signalgrass plant response rating (surinam grass; [1]): 3 | B. signalgrass plant response rating (surinam grass; [2]): 7 | B. signalgrass plant response rating (surinam grass; [3]): 0 | Plant response rating, B. signalgrass (surinam grass; Preemergence, Rate 62 g/ha): 0 | B. signalgrass plant response rating (surinam grass; [4]): 3 | B. signalgrass plant response rating (0 to 10 scale, 0 is no effect, 10 is complete control) (surinam grass; Preemergence, Rate 250 g/ha): 10 | Plant response rating, B. signalgrass (surinam grass; Rate 250 g/ha, Postemergence): 7 | Blackgrass plant response rating (blackgrass; [1]): 4 | Blackgrass plant response rating (blackgrass; [5]): 4 | Blackgrass plant response rating (blackgrass; [2]): 7 | Blackgrass plant response rating (blackgrass; [3]): 4 | Plant response rating, Blackgrass (blackgrass; Preemergence, Rate 62 g/ha): 7 | Blackgrass plant response rating (blackgrass; [4]): 8 | Blackgrass plant response rating (0 to 10 scale) (blackgrass; Preemergence, Rate 250 g/ha): 7 | Plant response rating, Blackgrass (blackgrass; Rate 250 g/ha, Postemergence): 7 | Wheat plant response rating (wheat; [1]): 0 | Wheat plant response rating (wheat; [5]): 0 | Wheat plant response rating (wheat; [2]): 0 | Plant response rating, Wheat (wheat; Preemergence, Rate 62 g/ha): 0 | Wheat plant response rating (wheat; [4]): 2 | Wheat plant response rating (0 to 10 scale) (wheat; Preemergence, Rate 250 g/ha): 3 | Plant response rating, Wheat (wheat; Rate 250 g/ha, Postemergence): 0 | Sugarbeets plant response rating (sugar beet; [1]): 0 | Sugarbeets plant response rating (sugar beet; [5]): 0 | Sugarbeets plant response rating (sugar beet; [2]): 3 | Plant response rating, Sugarbeets (sugar beet; Preemergence, Rate 62 g/ha): 0 | Sugarbeets plant response rating (sugar beet; [4]): 2 | Sugarbeets plant response rating (0 to 10 scale) (sugar beet; Preemergence, Rate 250 g/ha): 2 | Plant response rating, Sugarbeets (sugar beet; Rate 250 g/ha, Postemergence): 3 | Bedstraw plant response rating (bedstraw; Rate 31 g/ha, visual rating, scale 0 to 10 (0 no effect, 10 complete control)): 0 | Plant response rating, Bedstraw (bedstraw; Rate 62 g/ha, scale of 0 to 10 where 0 is no effect and 10 is complete control): 0 | Bedstraw plant response rating (bedstraw; Rate 125 g/ha, scale 0 to 10, 0 is no effect, 10 is complete control): 0 | Bedstraw plant response rating (0 to 10 scale) (bedstraw; Rate 250 g/ha): 0 | Cocklebur plant response rating (cocklebur; [1]): 0 | Cocklebur plant response rating (cocklebur; [5]): 0 | Cocklebur plant response rating (cocklebur; [2]): 0 | Cocklebur plant response rating (cocklebur; [3]): 0 | Plant response rating, Cocklebur (cocklebur; Preemergence, Rate 62 g/ha): 0 | Cocklebur plant response rating (cocklebur; [4]): 0 | Cocklebur plant response rating (0 to 10 scale) (cocklebur; Preemergence, Rate 250 g/ha): 0 | Plant response rating, Cocklebur (cocklebur; Rate 250 g/ha, Postemergence): 0 | Wild oats plant response rating (wild oat; [1]): 0 | Wild oats plant response rating (wild oat; [5]): 0 | Wild oats plant response rating (wild oat; [2]): 2 | Plant response rating, Wild oats (wild oat; Preemergence, Rate 62 g/ha): 4 | Wild oats plant response rating (wild oat; [4]): 6 | Wild oats plant response rating (0 to 10 scale) (wild oat; Preemergence, Rate 250 g/ha): 8 | Plant response rating, Wild oats (wild oat; Rate 250 g/ha, Postemergence): 2 | Nutsedge plant response rating (purple nutsedge; [1]): 0 | Nutsedge plant response rating (purple nutsedge; [5]): 0 | Nutsedge plant response rating (purple nutsedge; [2]): 0 | Plant response rating, Nutsedge (purple nutsedge; Preemergence, Rate 62 g/ha, scale of 0 to 10 where 0 is no effect and 10 is complete control): 0 | Nutsedge plant response rating (purple nutsedge; [4]): 0 | Nutsedge plant response rating (0 to 10 scale) (purple nutsedge; Preemergence, Rate 250 g/ha): 0 | Corn plant response rating (corn; [1]): 0 | Corn plant response rating (corn; [5]): 0 | Corn plant response rating (corn; [2]): 0 | Corn plant response rating (corn; [3]): 0 | Plant response rating, Corn (corn; Preemergence, Rate 62 g/ha): 0 | Corn plant response rating (corn; [4]): 0 | Corn plant response rating (0 to 10 scale) (corn; Preemergence, Rate 250 g/ha): 0 | Plant response rating, Corn (corn; Rate 250 g/ha, Postemergence): 0 | Giant foxtail plant response rating (giant foxtail; [1]): 0 | Giant foxtail plant response rating (giant foxtail; [5]): 0 | Giant foxtail plant response rating (giant foxtail; [2]): 0 | Giant foxtail plant response rating (giant foxtail; [3]): 0 | Plant response rating, Giant foxtail (giant foxtail; Preemergence, Rate 62 g/ha): 0 | Giant foxtail plant response rating (giant foxtail; [4]): 0 | Giant foxtail plant response rating (0 to 10 scale) (giant foxtail; Preemergence, Rate 250 g/ha): 0 | Plant response rating, Giant foxtail (giant foxtail; Rate 250 g/ha, Postemergence): 2 | Velvetleaf plant response rating (velvetleaf; Postemergence): 2 | Plant response rating, Velvetleaf (velvetleaf; Preemergence, Rate 62 g/ha): 0 | Velvetleaf plant response rating (velvetleaf; Preemergence): 0 | Velvetleaf plant response rating (0 to 10 scale) (velvetleaf; Preemergence, Rate 250 g/ha): 0 | Plant response rating, Velvetleaf (velvetleaf; Rate 250 g/ha, Postemergence): 4 | Soybean plant response rating (soybean; [1]): 4 | Soybean plant response rating (soybean; [5]): 4 | Soybean plant response rating (soybean; [2]): 5 | Plant response rating, Soybean (soybean; Preemergence, Rate 62 g/ha): 0 | Soybean plant response rating (soybean; [4]): 0 | Soybean plant response rating (0 to 10 scale) (soybean; Preemergence, Rate 250 g/ha): 0 | Plant response rating, Soybean (soybean; Rate 250 g/ha, Postemergence): 5 | Crabgrass plant response rating (crabgrass; [1]): 0 | Crabgrass plant response rating (crabgrass; [5]): 0 | Crabgrass plant response rating (crabgrass; [2]): 2 | Crabgrass plant response rating (crabgrass; [3]): 0 | Plant response rating, Crabgrass (crabgrass; Preemergence, Rate 62 g/ha): 0 | Crabgrass plant response rating (crabgrass; [4]): 0 | Crabgrass plant response rating (0 to 10 scale) (crabgrass; Preemergence, Rate 250 g/ha): 0 | Plant response rating, Crabgrass (crabgrass; Rate 250 g/ha, Postemergence): 10 | Rape plant response rating (rape; [1]): 0 | Rape plant response rating (rape; [5]): 0 | Rape plant response rating (rape; [2]): 7 | Plant response rating, Rape (rape; Preemergence, Rate 62 g/ha): 0 | Rape plant response rating (rape; [4]): 0 | Rape plant response rating (0 to 10 scale) (rape; Preemergence, Rate 250 g/ha): 0 | Plant response rating, Rape (rape; Rate 250 g/ha, Postemergence): 7 | Morningglory plant response rating (morningglory; [1]): 5 | Morningglory plant response rating (morningglory; [5]): 5 | Morningglory plant response rating (morningglory; [2]): 5 | Plant response rating, Morningglory (morningglory; Preemergence, Rate 62 g/ha): 0 | Morningglory plant response rating (morningglory; [4]): 0 | Morningglory plant response rating (0 to 10 scale) (morningglory; Preemergence, Rate 250 g/ha): 0 | Plant response rating, Morningglory (morningglory; Rate 250 g/ha, Postemergence): 8 | Redroot pigweed plant response rating (pigweed; [1]): 0 | Redroot pigweed plant response rating (pigweed; [5]): 0 | Redroot pigweed plant response rating (pigweed; [2]): 0 | Plant response rating, Redroot pigweed (pigweed; Preemergence, Rate 62 g/ha): 2 | Redroot pigweed plant response rating (pigweed; [4]): 2 | Redroot pigweed plant response rating (0 to 10 scale) (pigweed; Preemergence, Rate 250 g/ha): 4 | Plant response rating, Redroot pigweed (pigweed; Rate 250 g/ha, Postemergence): 0
